Experimental data reported in PubChem BioAssay AID179 (DTP/NCI, 2004).
Active and inactive are the calls of the source.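 Rule for the calls: active = compounds giving half or more protection of infected cells from virus-caused growth loss, again on retest; inactive = the rest.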

Test system: CEM cells HIV-1 protection, formazan growth assay
Assay: NCI AIDS Antiviral Assay
Settings: for IC50: measured here: growth of uninfected CEM cells
Outline: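 Soluble formazan readout of cell growth; CEM cells ± HIV-1; 5 drug concs. ≥50% protection → retest; ≥50% again = moderately active; reproducible 100% = confirmed active.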

Structure (SMILES)	EC50	IC50	outcome
CC(C)CCC[C@@H](C)C1CCC2[C@@H]3CCC4C[C@@H](CCC=C(c5cc(Cl)c(O)c(C(=O)O)c5)c5cc(Cl)c(O)c(C(=O)O)c5)CC[C@]4(C)C3CC[C@@]21C (some centres not stated)	32.4 µM	> 100 µM	
Cc1[nH]cc2c1C(c1ccccc1F)=NCC(=O)N2	> 229 µM	> 229 µM	
COc1ccc(CNNCc2ccc(OC)cc2)cc1	> 200 µM	110 µM	
COC(=O)[C@H]1COC(=O)N1	> 200 µM	> 200 µM	
CCSC1=C(C#N)C2(CCCCC2)C2=C(CC(C)(C)CC2=O)N1	> 200 µM	> 200 µM	
O=C1OCCc2c1[nH]c1ccccc21	> 363 µM	219 µM	
CC(C)CCCC(C)[C@H]1CC[C@H]2[C@@H]3CC[C@H]4C[C@@H](CCC=C(c5cc(Cl)c(OC(=O)C(C)(C)C)c(C(=O)O)c5)c5cc(Cl)c(OC(=O)C(C)(C)C)c(C(=O)O)c5)CC[C@]4(C)[C@H]3CC[C@]12C (some centres not stated)	75.9 µM	> 100 µM	
OC1(CCc2ccccc2)COC(C(F)(F)F)(C(F)(F)F)C1 (configuration not stated)	> 200 µM	> 200 µM	
CCc1cc2c(cc1C(=O)CCC(=O)O)CC1(C2)Cc2cc(CC)c(C(=O)CCC(=O)O)cc2C1	> 200 µM	107 µM	
Cc1ccc(S(=O)(=O)N(CCN)c2cc3c4c(c2)Oc2cccc5c2C4c2c(cccc2O3)O5)cc1	> 200 µM	35.5 µM	
COC(=O)CCc1ccc(CCC(=O)OC)cc1	> 200 µM	> 200 µM	
Cc1ncc(N)c(C(=O)O)n1	> 1620 µM	> 1620 µM	
CCCCc1ccc(Nc2nc(Cl)c3c(ncn3C3CC(Oc4ccc(C)cc4)C(COc4ccc(C)cc4)O3)n2)cc1 (configuration not stated)	> 200 µM	> 200 µM	
CN(C)c1ccc2c(c1)C(=O)N(OS(=O)(=O)c1ccccc1)C2=O			inactive
CN(NC(=O)/C(=C/C=C/c1ccccc1)NC(=O)c1ccccc1)C1=C(Cl)C(=O)[N+](c2ccccc2)=CC1	> 200 µM	35.5 µM	
CCOC(=O)c1[nH]n(-c2ccccc2)c(=O)c1/C=N/C(=S)Nc1ccccc1	> 200 µM	51.3 µM	
CCC(C)(O)c1cn(-c2ccc(Cl)cc2)nn1 (configuration not stated)	> 708 µM	324 µM	
O=C1OC(=O)c2c1cc1cc3c(cc1c2-c1ccc2c(c1)OCO2)OCO3			inactive
Cn1cccc1/C=N/N=C(/N)NO			inactive
CS(=O)(=O)N1CC(CCl)c2ccc(NO)cc21 (configuration not stated)	> 200 µM	3.72 µM	
Cc1ccc2c(c1)C(O)(c1ccccc1)C(c1ccccc1)C(c1ccccc1)O2 (configuration not stated)	> 200 µM	6.92 µM	
Nc1nc(Cl)cc(NC2(CO)CCC2)n1	> 200 µM	> 200 µM	
CN(C)c1c([O-])c(=[N+](C)C)c1=O			inactive

Structure (SMILES)	EC50	IC50	outcome
CCOC(=O)CN(Cn1cncn1)Cn1cncn1	> 200 µM	28.8 µM	
C=C(Nc1nc2ccc(C)cc2s1)C(=O)C(CC)C(=O)C(CC)CC1C(=O)NC(=O)NC1=O (configuration not stated)	> 39.8 µM	> 39.8 µM	
CC1(C)CNC(=O)C(C)(C2(C)NC(C)(C)CNC2=O)N1 (configuration not stated)	> 200 µM	> 200 µM	
CN1CCN(C(=S)N(C(=O)c2ccco2)c2ccccc2)CC1	> 759 µM	> 759 µM	
O=C(NCCc1ccccc1)c1c(O)c2ccccc2[nH]c1=O	> 200 µM	> 200 µM	
O=S(=O)(O)c1ccc(Nc2ccnc3cc(Cl)ccc23)cc1	> 200 µM	> 200 µM	
NC(CS)=NCC1C2CC3CC(C2)CC1C3 (configuration not stated)	> 200 µM	33.1 µM	
O=C(O)c1ccccc1-c1c2ccc(=Nc3ccccc3)cc-2oc2cc(Nc3ccc(S(=O)(=O)O)cc3)ccc12	14.1 µM	> 200 µM	
CC1CCN(C(C)(C)C)P(=O)(Cc2ccccc2)O1 (configuration not stated)			inactive
c1ccc(/N=N/c2ccccn2)nc1	> 200 µM	> 200 µM	
Nc1ccc([N+](=O)[O-])cc1N=C/C=C/c1ccccc1	> 10.2 µM	> 10.2 µM	
COC1CCC(=O)N1CCn1c(SCc2ccccc2)nc2ccccc21 (configuration not stated)	> 93.3 µM	> 93.3 µM	
NCCN1C(=O)c2ccccc2C1c1ccc(Cl)cc1 (configuration not stated)	> 200 µM	> 200 µM	
CCOP(=O)(OCC)C(N)C(C)CC (configuration not stated)	> 479 µM	> 479 µM	
COc1cc(OC)c(OC)cc1/C=C1\C=Cc2ccccc21	> 17.8 µM	> 17.8 µM	
C[N+](C)(CCO)CCN1c2ccccc2Sc2ccccc21	> 200 µM	> 200 µM	
CCCCCC=C(c1cc(Cl)c(OC)c(C(N)=O)c1)c1cc(Cl)c(OC)c(C(N)=O)c1	1.82 µM	15.8 µM	
O=C(O)c1cc2ccccc2c(S(=O)(=O)O)c1O	> 200 µM	> 200 µM	
CN1C(=O)N/C(=C\c2ccc(S(=O)(=O)N/N=C\C(O)C(O)C(O)C(O)CO)cc2)C1=O (configuration not stated)	> 200 µM	> 200 µM	
O=C(Nc1ccc(Cl)cc1Cl)C1C(=O)OC2(CCCCC2)OC1=O	> 200 µM	13.8 µM	
Cc1ccc(/C=C2\Cc3cc(C)c(C)cc3C2=O)c(C(=O)O)c1	> 200 µM	38.9 µM	
COC(=O)[C@H]1[C@H]2C[C@@H]3c4[nH]c5cccc(OC)c5c4CCN3C[C@H]2CC[C@H]1O	> 200 µM	> 200 µM	
CC(C)=CCN1CCCn2c(=S)[nH]c3cccc(c32)C1=O	> 200 µM	> 200 µM	

Structure (SMILES)	EC50	IC50	outcome
Cc1cc2c(c(C(N)=O)c1C)-c1cccc(Cl)c1C2=O			inactive
COc1ccc(-c2coc3c4c(c5c(c3c2=O)OC(C)(C)CC5)OC(C)(C)C=C4)cc1OC	> 39.8 µM	12.3 µM	
O=C(O)C[C@@H]1[C@@H](O)[C@@H](O)CN2C(=O)c3ccccc3[C@H]12	> 200 µM	> 200 µM	
CC1(C)C2CCC1(C)C(OC(=O)/C=C/C(=O)OC1CC3CCC1(C)C3(C)C)C2 (configuration not stated)			inactive
c1ccc2c(NCCCCCCCCNc3c4ccccc4nc4ccccc34)c3ccccc3nc2c1			inactive
NC(=O)C(=CNC(=S)Nc1ccc(Cl)c(Cl)c1)C(N)=O	> 200 µM	30.2 µM	
[O-][N+]1=NC(c2ccccc2)=C1c1ccccc1	> 50.1 µM	> 50.1 µM	
CCCCCCc1cc(C(=O)Nc2cccc(C(F)(F)F)c2)nc(N)n1			inactive
ONC1=Nc2ccccc2C(=S)N2CSCC12 (configuration not stated)	> 200 µM	> 200 µM	
CC(O)CCNc1nnc2c3ccccc3n(C)c2n1 (configuration not stated)	> 200 µM	> 200 µM	
CCCCc1c2c(nc3c1CCC/C3=C\c1ccccc1)C(=O)C(CN(C)C)CC2 (configuration not stated)	> 9.33 µM	> 9.33 µM	
O=C1C2CC[C@@H]3C(=O)C(Cl)(Cl)[C@@H]3CCC2C1(Cl)Cl (some centres not stated)	> 200 µM	> 200 µM	
CN(/N=C/c1ccc(Cl)c(Cl)c1)C1=NCCN1	> 200 µM	16.2 µM	
COc1cc(C(c2cccc3ccccc23)N2C(=O)CCC2C(=O)O)cc(OC)c1OC (configuration not stated)	> 200 µM	> 200 µM	
CC1(Br)C(=O)NC(=O)N(C2CC(N=[N+]=[N-])C(CO)O2)C1N=[N+]=[N-] (configuration not stated)		89.1 µM	active
COC(=O)C(N)CSCc1ccccc1 (configuration not stated)	> 692 µM	589 µM	
Cc1c(-c2nnc(-c3ccc(Cl)cc3)o2)c(=O)n(-c2ccccc2)n1C	> 200 µM	> 200 µM	
Cc1ccc(/C=N/NS(=O)(=O)c2ccccc2)c(C)c1			inactive
CCOc1cnc([C@H]2CCC3[C@@H]4CC=C5C[C@@H](OC(=O)CCC(=O)O)CC[C@]5(C)C4CC[C@@]32C)s1 (some centres not stated)	> 50.1 µM	32.4 µM	
S=c1cn[nH]c2c(Cl)cccc12	> 107 µM	81.3 µM	
COc1cc(/C=C/c2ccnc3ccccc23)ccc1N(C)C	> 200 µM	2.19 µM	
Nc1nc(Cl)c(Cl)nc1C(=O)O	> 200 µM	117 µM	
CCCCCCCCCCCCC/C=C/[C@@H](OC(=O)c1ccccc1)C(CO)N=[N+]=[N-] (some centres not stated)			inactive

Structure (SMILES)	EC50	IC50	outcome
O=C(O)C[C@@H](Cl)[C@H](NC(=O)OCc1ccccc1)C(=O)O			inactive
CCN(CC)c1ccc2cc(-c3nc4ccccc4s3)c(=O)oc2c1	> 20.4 µM	> 20.4 µM	
COc1ccc(/C=C2/SC(=Nc3ccccc3)N(NC(=O)Cc3ccccc3)C2=O)cc1	> 214 µM	148 µM	
O=C1CCC(c2ccccc2)(C2CCN(Cc3ccc(F)cc3)CC2)C(=O)N1 (configuration not stated)	> 200 µM	123 µM	
COc1ccc2c(c1)[n+](=O)c(C(=O)C/C(=N\NC(=O)C[N+](C)(C)C)C(=O)Nc1cc(Cl)ccc1Cl)c(C)n2O	> 1.23 µM	> 1.23 µM	
CN1CC2(CCCCC2)C(O)C12C=CCCC2 (configuration not stated)	> 380 µM	> 380 µM	
CCOC(=O)C(=CNc1cccc(NC=C(C(=O)OCC)C(=O)OCC)c1)C(=O)OCC	> 200 µM	19.1 µM	
CN(C)CCCN1C(=O)CCC(=O)Nc2ccccc2-c2ccccc21			inactive
COc1ccc(/C=C/C(C(=O)O)C(=O)O)cc1	> 398 µM	56.2 µM	
CC(C)(C)C(=O)/C=C/c1ccc(Cl)cc1	> 32.4 µM	> 32.4 µM	
[CH3][Sn]([CH3])([CH3])[c]1cccc2ccccc12			inactive
CC(C)(CO)N1C(=O)c2ccccc2C1(O)c1ccc(Cl)cc1 (configuration not stated)	> 200 µM	91.2 µM	
Nn1c(CCCCCCCCc2nnc(COc3c(O)ccc4ccccc34)n2N)nnc1COc1c(O)ccc2ccccc12	> 200 µM	170 µM	
O=S(O)Cc1ccccc1CSSSCc1ccccc1CS(=O)O	> 200 µM	102 µM	
CC1=Nc2ccc(Cl)cc2N=C(C)C1	> 200 µM	155 µM	
O=C1OC(c2ccccc2)c2ccsc2-n2cccc21 (configuration not stated)	> 200 µM	123 µM	
CC(CN1CC(=O)NC(=O)C1)N1CC(=O)NC(=O)C1 (configuration not stated)	> 468 µM	40.7 µM	
COc1cc(NS(=O)(=O)c2ccc(C(C)=O)cc2)nc(OC)n1	> 200 µM	> 200 µM	
COc1ccc2c(c1)CCN=C2Cc1ccccc1CCCl	> 200 µM	26.3 µM	
CC1(C)CC(O)C(C)(C)[C@@H](O)C1 (some centres not stated)			inactive
O=C1NC(=O)C(=Cc2cccc(F)c2)C(=O)N1	> 112 µM	> 112 µM	
CN(CC(=O)Nc1ccccc1C(=O)O)c1ccccc1	> 200 µM	69.2 µM	
